Reference: patent publication US20120244553A1, “BIOMARKER OF ALLERGIC DISEASE AND USE OF THE SAME” (UNIVERSITY OF TOYAMA, priority 2007, published 2012)
“Also recorded” adds a separate entry of the source.

B1: granzyme A: serine protease expressed in CD4+ T cells; intradermally injected into mice to induce scratching (protein, listed as Homo sapiens)
chain: MRNSYRFLASSLSVVVSLLLIPEDVCEKIIGGNEVTPHSRPYMVLLSLDRKTICAGALIAKDWVLTAAHCNLNKRSQVILGAHSITREEPTKQIMLVKKEFPYPCYDPATREGDLKLLQLTEKAKINKYVTILHLPKKGDDVKPGTMCQVAGWGRTHNSASWSDTLREVNITIIDRKVCNDRNHYNFNPVIGMNMVCAGSLRGGRDSCNGDSGSPLLCEGVFRGVTSFGLENKCGDPRGPGVYILLSKKHLNWIIMTIKGAV

Tests used:
primary afferent = conditions: sensitized mouse; cited from earlier work
[1] = system: mosquito salivary gland extract-induced scratching behavior; conditions: mouse; cited from earlier work
mice = conditions: animals such as mice; cited from earlier work
[2] = system: granzyme A-induced scratching behavior; experiment: Suppression of scratching behavior induced by intradermal injection of granzyme A; assay type: in vivo, mouse; conditions: naltrexone injected 15 minutes before granzyme A
Experimental: (§1) On the day before the experiment, the hair on the rostral back of each mouse was removed. On the day of the experiment, the mouse was left in an observation cage for 1 hour to familiarize the mouse with the environment. After the familiarization, granzyme A (0.1 to 100 μg/site) or ESGM (10 μg/50 μL) was intradermally injected to the rostral back of the mouse. The mouse was returned to the observation cage (13×9×30 cm) immediately after the administration, and the behavior with no observer present was filmed with an 8-mm video camera. A protease inhibitor in an amount of 0.05 mL per 10 g of body weight of the mouse was injected into the tail vein 30 seconds before the administration of ESGM. Naltrexone in an amount of 0.1 mL per 10 g of body weight of the mouse was intradermally injected 15 minutes before the administration of granzyme A. The behavior after the injection was observed by playing back the video. Scratching behavior was determined by counting the number of times there was scratching of the injection portion and nearly areas with the hind paws. A mouse usually scratches several times for about 1 second, and a series of this behavior was determined as one instance of scratching behavior.

normal mice = experiment: Behavior experiment: scratching behavior after intradermal injection of granzyme A; assay type: in vivo, mouse
Experimental: as §1

Row | Molecule | Effect on enhanced activity of primary afferent after mosquito salivary gland extract injection (primary afferent) | Effect on scratching behavior increased by repetitive injections of mosquito salivary gland extract [1] | also measured
1 | CN1CCCC(n2nc(Cc3ccc(Cl)cc3)c3ccccc3c2=O)CC1 (centres unmarked) [azelastine] | suppressed | is suppressed | –
2 | NCCc1c[nH]cn1 [histamine] | – | – | Scratching behavior caused by histamine (mice): does not cause scratching behavior
3 | O=C1CC[C@@]2(O)[C@H]3Cc4ccc(O)c5c4[C@@]2(CCN3CC2CC2)[C@H]1O5 [naltrexone] | – | – | Effect on scratching behavior induced by intradermal injection of granzyme A [2]: suppressed
4 | CC(C)(C)c1ccc(C(O)CCCN2CCC(C(O)(c3ccccc3)c3ccccc3)CC2)cc1 (centres unmarked) [terfenadine] | not suppressed | is not suppressed | –
5 | B1 | – | – | Dose giving peak scratching behavior (normal mice; intradermal injection): 10 μg/site; Scratching behavior induced by intradermal injection (normal mice; intradermal injection to rostral back, 0.1 to 100 μg/site): an itching reaction occurred; also recorded: induced; also recorded: induction of scratching behavior
